Measured values reported in US6933150B1, “Relationship of ABC transport proteins with hematopoietic stem cells and methods of use thereof” (priority 1998, dated 2005).

Experiments:
ABC transporter = experiment: SP cell analysis of mdr1a/1b knockout bone marrow cells treated with ABC transporter inhibitors; conditions: treatment before and during Hoechst 33342 staining
Protocol: Hoechst 33342 SP cell assay: Murine bone marrow cells were collected and resuspended at 1×10^6 cells/ml in DMEM plus 10 mM HEPES and 2%, FBS. In a water bath, the cells were allowed to equilibrate at 37° C., followed by addition of 5 μg/ml Hoechst 33342 (Fisher Scientific, Pittsburgh, Pa.) for 90 minutes as previously described [Goodell et al., J. Exp. Med., 183:1797-1806 (1996)]. Cells were then centrifuged at 4° C. and resuspended in ice cold HBSS plus 10 mM HEPES and 2% FBS at 1×10^7 cells/ml. For flow cytometric analysis or sorting, a Becton Dickinson FACS Vantage flow cytometer (Becton Dickinson, San Jose, Calif.) was configured for dual emission wavelength analysis as previously described [Goodell et al., J. Exp. Med., 183:1797-1806 (1996)]. Cells were gated based on forward and side light scatter to exclude debris. […] Cells were analyzed at approximately 5,000 cells/second until data from 1×10^6 cells were collected. The SP cell gate was defined based on normal fresh C57BL/6 bone marrow cells.
Cells were treated with either verapamil or 2-deoxyglucose. Verapamil is a competitive inhibitor of several known ABC transporters including MDR1, whereas 2-deoxyglucose is an inhibitor of ATP synthesis that depletes cellular ATP levels required for ABC transporter function.

myeloid progenitors = experiment: Drug-resistant myeloid progenitor (CFU-C) assay in methylcellulose; assay type: cell-based, mouse; conditions: 25 to 50 nM, thymidine phosphorylase-treated methylcellulose
Protocol: Ex vivo culture and expansion of myeloid progenitors: Following transduction (day 0), cells were cultured in the presence of the growth factor combination described above. Cells were resuspended at 1×10^6 cells/ml every 3-6 days for at least 12 days of expansion. Aliquots of cells were removed for CFU-C analysis at various time points.
Retroviral-mediated gene transfer into murine hematopoietic stem cells: BM cells were harvested from C57BL/6 or B6.Ch-1/By (referred to as “HW80”) congenic mouse strains (Jackson Laboratories, Bar Harbor, Me. ) by standard methods. Following isolation, cells were placed into liquid suspension culture in Dulbecco's Modified Eagle's Medium (DMEM) (BioWhittaker, Walkersville, Md.) with 1% penicillin/streptomycin (Gibco/BRL, Grand Island, N.Y.), 15% fetal bovine serum (FBS; Hyclone, Logan Utah), 20 ng/ml murine interleukin (IL)-3®& D Systems, Minneapolis, Minn.), 50 ng/ml human IL-6 (Amgen, Thousand Oaks, Calif.), and 50 ng/ml murine stem cell factor ® & D Systems). The cells were initially plated at 1×10^6 cells/ml in 10 mls of medium. Following pre-stimulation for 48 hours, cells were replated onto confluent monolayers of irradiated ecotropic producer cell lines. The bone marrow cells were plated at the same density used in the pre-stimulation phase and in the same medium with 6 μg/ml polybrene added. […]

O=CC[C@@H](O)[C@H](O)[C@H](O)CO [2-deoxyglucose]
Effect on SP cell phenotype (ABC transporter): eliminated phenotypically identifiable SP cells

COc1cc(NCc2ccc3nc(N)nc(N)c3c2C)cc(OC)c1OC [trimetrexate]
Killing of non-transduced background cells (myeloid progenitors): completely killed

COc1ccc(CCN(C)CCCC(C#N)(c2ccc(OC)c(OC)c2)C(C)C)cc1OC (stereo not drawn) [verapamil]
Effect on SP cell phenotype (ABC transporter): eliminated phenotypically identifiable SP cells
